Activity calls are given as the source filed them. The rule behind the calls is not given here.
Columns and labels:
[1] = target: Rho-related GTP-binding protein RhoB (Homo sapiens) (UniProt P62745); assay: Transactivation of RhoB in human HeLa cells by luciferase reporter assay; assay type: cell-based
HCT-15 [2] = assay: Antiproliferative activity against human HCT15 cells at 10 uM by SRB assay; assay type: functional
MDA-MB-231 [3] = assay: Antiproliferative activity against human MDA-MB-231 cells by SRB assay; assay type: functional
PC-3 [4] = assay: Antiproliferative activity against human PC3 cells at 10 uM by SRB assay; assay type: functional
HCT-15 [5] = assay: Antiproliferative activity against human HCT15 cells at 0.3 uM by SRB assay; assay type: functional
NCI-H23 [6] = assay: Antiproliferative activity against human NCI-H23 cells at 10 uM by SRB assay; assay type: functional
NUGC-3 [7] = assay: Antiproliferative activity against human NUGC3 cells at 3 uM by SRB assay; assay type: functional
NCI-H23 [8] = assay: Antiproliferative activity against human NCI-H23 cells at 3 uM by SRB assay; assay type: functional
NCI-H23 [9] = assay: Antiproliferative activity against human NCI-H23 cells by SRB assay; assay type: functional
NCI-H23 [10] = assay: Antiproliferative activity against human NCI-H23 cells at 1 uM by SRB assay; assay type: functional
HCT-15 [11] = assay: Antiproliferative activity against human HCT15 cells at 0.1 uM by SRB assay; assay type: functional
PC-3 [12] = assay: Antiproliferative activity against human PC3 cells at 1 uM by SRB assay; assay type: functional
NCI-H23 [13] = assay: Antiproliferative activity against human NCI-H23 cells at 0.3 uM by SRB assay; assay type: functional
NUGC-3 [14] = assay: Antiproliferative activity against human NUGC3 cells at 0.1 uM by SRB assay; assay type: functional
NUGC-3 [15] = assay: Antiproliferative activity against human NUGC3 cells at 0.3 uM by SRB assay; assay type: functional
NUGC-3 [16] = assay: Antiproliferative activity against human NUGC3 cells at 10 uM by SRB assay; assay type: functional
NUGC-3 [17] = assay: Antiproliferative activity against human NUGC3 cells by SRB assay; assay type: functional
NUGC-3 [18] = assay: Antiproliferative activity against human NUGC3 cells at 1 uM by SRB assay; assay type: functional
HCT-15 [19] = assay: Antiproliferative activity against human HCT15 cells by SRB assay; assay type: functional
ACHN [20] = assay: Antiproliferative activity against human ACHN cells at 10 uM by SRB assay; assay type: functional
MDA-MB-231 [21] = assay: Antiproliferative activity against human MDA-MB-231 cells at 0.1 uM by SRB assay; assay type: functional
PC-3 [22] = assay: Antiproliferative activity against human PC3 cells at 0.1 uM by SRB assay; assay type: functional
PC-3 [23] = assay: Antiproliferative activity against human PC3 cells by SRB assay; assay type: functional
PC-3 [24] = assay: Antiproliferative activity against human PC3 cells at 3 uM by SRB assay; assay type: functional
ACHN [25] = assay: Antiproliferative activity against human ACHN cells at 0.1 uM by SRB assay; assay type: functional
ACHN [26] = assay: Antiproliferative activity against human ACHN cells at 1 uM by SRB assay; assay type: functional
NCI-H23 [27] = assay: Antiproliferative activity against human NCI-H23 cells at 0.1 uM by SRB assay; assay type: functional
HCT-15 [28] = assay: Antiproliferative activity against human HCT15 cells at 1 uM by SRB assay; assay type: functional
ACHN [29] = assay: Antiproliferative activity against human ACHN cells at 0.3 uM by SRB assay; assay type: functional
HCT-15 [30] = assay: Antiproliferative activity against human HCT15 cells at 3 uM by SRB assay; assay type: functional
PC-3 [31] = assay: Antiproliferative activity against human PC3 cells at 0.3 uM by SRB assay; assay type: functional
ACHN [32] = assay: Antiproliferative activity against human ACHN cells by SRB assay; assay type: functional
MDA-MB-231 [33] = assay: Antiproliferative activity against human MDA-MB-231 cells at 10 uM by SRB assay; assay type: functional
MDA-MB-231 [34] = assay: Antiproliferative activity against human MDA-MB-231 cells at 1 uM by SRB assay; assay type: functional
MDA-MB-231 [35] = assay: Antiproliferative activity against human MDA-MB-231 cells at 3 uM by SRB assay; assay type: functional
MDA-MB-231 [36] = assay: Antiproliferative activity against human MDA-MB-231 cells at 0.3 uM by SRB assay; assay type: functional
ACHN [37] = assay: Antiproliferative activity against human ACHN cells at 3 uM by SRB assay; assay type: functional

Chain of Rho-related GTP-binding protein RhoB (Homo sapiens) (P62745 whole entry): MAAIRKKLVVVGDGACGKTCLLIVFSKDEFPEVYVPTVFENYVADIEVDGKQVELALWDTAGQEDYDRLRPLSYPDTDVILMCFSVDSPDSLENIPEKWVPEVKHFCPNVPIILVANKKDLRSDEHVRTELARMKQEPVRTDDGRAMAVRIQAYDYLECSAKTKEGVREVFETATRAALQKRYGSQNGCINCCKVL

Structure (SMILES) | Activity [1] | growth, % of control at 10 µM (HCT-15 [2]) | GI50 (MDA-MB-231 [3]) | growth, % of control at 10 µM (PC-3 [4]) | growth, % of control at 0.3 µM (HCT-15 [5]) | growth, % of control at 10 µM (NCI-H23 [6]) | growth, % of control at 3 µM (NUGC-3 [7]) | growth, % of control at 3 µM (NCI-H23 [8]) | GI50 (NCI-H23 [9]) | growth, % of control at 1 µM (NCI-H23 [10]) | growth, % of control at 0.1 µM (HCT-15 [11]) | growth, % of control at 1 µM (PC-3 [12]) | growth, % of control at 0.3 µM (NCI-H23 [13]) | growth, % of control at 0.1 µM (NUGC-3 [14]) | growth, % of control at 0.3 µM (NUGC-3 [15]) | growth, % of control at 10 µM (NUGC-3 [16]) | GI50 (NUGC-3 [17]) | growth, % of control at 1 µM (NUGC-3 [18]) | GI50 (HCT-15 [19]) | growth, % of control at 10 µM (ACHN [20]) | other results
CCCCCCCCCCCCCCCC(=O)N(C)CC[N+](C)(C)C | Active | 15.8% | 1140 nM | -15.8% | 102% | 0% | -0.9% | 58% | 1540 nM | 83.7% | 99.9% | 37.3% | 102% | 77.8% | 57.7% | -19.4% | 170 nM | 26.8% | 1310 nM | -19.1% | growth, % of control at 0.1 µM (MDA-MB-231 [21]): 106%; growth, % of control at 0.1 µM (PC-3 [22]): 96%; GI50 (PC-3 [23]): 370 nM; growth, % of control at 3 µM (PC-3 [24]): 3.5%; growth, % of control at 0.1 µM (ACHN [25]): 87.9%; growth, % of control at 1 µM (ACHN [26]): 42%; growth, % of control at 0.1 µM (NCI-H23 [27]): 101%; growth, % of control at 1 µM (HCT-15 [28]): 79.6%; growth, % of control at 0.3 µM (ACHN [29]): 85.9%; growth, % of control at 3 µM (HCT-15 [30]): 45.2%; growth, % of control at 0.3 µM (PC-3 [31]): 87.9%; GI50 (ACHN [32]): 450 nM; growth, % of control at 10 µM (MDA-MB-231 [33]): -1.2%; growth, % of control at 1 µM (MDA-MB-231 [34]): 81.6%; growth, % of control at 3 µM (MDA-MB-231 [35]): 41.4%; growth, % of control at 0.3 µM (MDA-MB-231 [36]): 100%; growth, % of control at 3 µM (ACHN [37]): 31.9%
CCCCCCCCCCCCCCCC(=O)N(C)CCC[N+](C)(C)C | Active | 29.6% | 1420 nM | -16.5% | 99.1% | -14.1% | -31.9% | 33.7% | 960 nM | 76.5% | 98.7% | 47.2% | 99.2% | 97% | 68% | -38.4% | 190 nM | 4.68% | 1980 nM | 1.49% | growth, % of control at 0.1 µM (MDA-MB-231 [21]): 97.7%; growth, % of control at 0.1 µM (PC-3 [22]): 106%; GI50 (PC-3 [23]): 490 nM; growth, % of control at 3 µM (PC-3 [24]): 0.07%; growth, % of control at 0.1 µM (ACHN [25]): 91.6%; growth, % of control at 1 µM (ACHN [26]): 58.9%; growth, % of control at 0.1 µM (NCI-H23 [27]): 98.7%; growth, % of control at 1 µM (HCT-15 [28]): 82.7%; growth, % of control at 0.3 µM (ACHN [29]): 86.8%; growth, % of control at 3 µM (HCT-15 [30]): 54%; growth, % of control at 0.3 µM (PC-3 [31]): 108%; GI50 (ACHN [32]): 760 nM; growth, % of control at 10 µM (MDA-MB-231 [33]): 21.7%; growth, % of control at 1 µM (MDA-MB-231 [34]): 76.6%; growth, % of control at 3 µM (MDA-MB-231 [35]): 46.6%; growth, % of control at 0.3 µM (MDA-MB-231 [36]): 96.1%; growth, % of control at 3 µM (ACHN [37]): 39.5%
CCCCCCCCCCCCCCCC(=O)NCC(C)(C)C[N+](C)(C)CC | Active | 57% | 1540 nM | -11.9% | 103% | 3.85% | 13.8% | 43.1% | 1340 nM | 85.6% | 107% | 38.5% | 101% | 91.8% | 90.9% | 1.32% | 430 nM | 38.1% | > 10000 nM | 34.5% | growth, % of control at 0.1 µM (MDA-MB-231 [21]): 94.4%; growth, % of control at 0.1 µM (PC-3 [22]): 103%; GI50 (PC-3 [23]): 440 nM; growth, % of control at 3 µM (PC-3 [24]): 4.52%; growth, % of control at 0.1 µM (ACHN [25]): 93.7%; growth, % of control at 1 µM (ACHN [26]): 87.4%; growth, % of control at 0.1 µM (NCI-H23 [27]): 108%; growth, % of control at 1 µM (HCT-15 [28]): 99.5%; growth, % of control at 0.3 µM (ACHN [29]): 92.4%; growth, % of control at 3 µM (HCT-15 [30]): 85.2%; growth, % of control at 0.3 µM (PC-3 [31]): 94.2%; GI50 (ACHN [32]): 2600 nM; growth, % of control at 10 µM (MDA-MB-231 [33]): 18.4%; growth, % of control at 1 µM (MDA-MB-231 [34]): 82.7%; growth, % of control at 3 µM (MDA-MB-231 [35]): 46.6%; growth, % of control at 0.3 µM (MDA-MB-231 [36]): 99.8%; growth, % of control at 3 µM (ACHN [37]): 58.9%
CCCCCCCCCCCCCC(=O)N(C)CC[N+](C)(C)C | Active | 19.2% | 800 nM | -21.7% | 90.4% | 4.1% | -3.9% | 36.1% | 920 nM | 79.7% | 91% | 38.4% | 80.1% | 100% | 70.9% | -11.9% | 220 nM | 22.5% | 1470 nM | -15.9% | growth, % of control at 0.1 µM (MDA-MB-231 [21]): 98.5%; growth, % of control at 0.1 µM (PC-3 [22]): 96.6%; GI50 (PC-3 [23]): 410 nM; growth, % of control at 3 µM (PC-3 [24]): -4.8%; growth, % of control at 0.1 µM (ACHN [25]): 84.4%; growth, % of control at 1 µM (ACHN [26]): 34.4%; growth, % of control at 0.1 µM (NCI-H23 [27]): 99.8%; growth, % of control at 1 µM (HCT-15 [28]): 82.4%; growth, % of control at 0.3 µM (ACHN [29]): 73.3%; growth, % of control at 3 µM (HCT-15 [30]): 53.1%; growth, % of control at 0.3 µM (PC-3 [31]): 96.4%; GI50 (ACHN [32]): 260 nM; growth, % of control at 10 µM (MDA-MB-231 [33]): 5.2%; growth, % of control at 1 µM (MDA-MB-231 [34]): 74.2%; growth, % of control at 3 µM (MDA-MB-231 [35]): 26.6%; growth, % of control at 0.3 µM (MDA-MB-231 [36]): 94.7%; growth, % of control at 3 µM (ACHN [37]): 9.6%

Reference: ChEMBL document CHEMBL2380247, “Synthesis and biological evaluation of novel aliphatic amido-quaternary ammonium salts for anticancer chemotherapy: part II” (2013)
